Data from patent publication US20130225633A1, “PHENYL HETEROCYCLOALKYL GLUCOCORTICOID RECEPTOR MODULATORS” (Corcept Therapeutics, Inc., priority 2012, published 2013).
pKi: −log10 of the molar value.

Key:
[1] = target: T1, glucocorticoid receptors (GR) in SW1353/MMTV-5 cells (Homo sapiens, UniProt P04150); experiment: GR reporter gene assay using SW1353/MMTV-5 cells (Example 24); format: cell-based
T1 construct: contains endogenous glucocorticoid receptors; endogenous in cells; host or cells: SW1353/MMTV-5 (human chondrosarcoma, stably transfected with pMAMneo-Luc reporter only)
T1 sequence (P04150 1-777): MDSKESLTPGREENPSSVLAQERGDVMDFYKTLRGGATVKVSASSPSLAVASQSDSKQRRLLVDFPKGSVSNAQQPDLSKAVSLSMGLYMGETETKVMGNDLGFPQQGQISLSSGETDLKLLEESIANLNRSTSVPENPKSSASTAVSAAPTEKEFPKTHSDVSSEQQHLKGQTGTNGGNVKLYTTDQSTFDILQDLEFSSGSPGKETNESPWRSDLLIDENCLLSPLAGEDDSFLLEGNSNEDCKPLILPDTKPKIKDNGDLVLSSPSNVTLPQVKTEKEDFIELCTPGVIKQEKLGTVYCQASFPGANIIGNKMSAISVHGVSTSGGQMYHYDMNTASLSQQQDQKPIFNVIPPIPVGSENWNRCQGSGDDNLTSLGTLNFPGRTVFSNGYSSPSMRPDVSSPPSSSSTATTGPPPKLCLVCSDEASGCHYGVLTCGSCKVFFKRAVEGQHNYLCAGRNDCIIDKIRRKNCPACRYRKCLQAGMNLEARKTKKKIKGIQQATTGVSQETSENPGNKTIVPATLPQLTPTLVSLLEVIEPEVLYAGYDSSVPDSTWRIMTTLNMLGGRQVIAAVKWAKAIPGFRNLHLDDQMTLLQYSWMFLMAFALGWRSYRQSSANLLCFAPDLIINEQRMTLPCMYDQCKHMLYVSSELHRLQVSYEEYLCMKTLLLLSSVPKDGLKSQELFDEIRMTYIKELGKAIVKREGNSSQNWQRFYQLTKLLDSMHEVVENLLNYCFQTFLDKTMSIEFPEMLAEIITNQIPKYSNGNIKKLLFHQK
Experimental: SW1353/MMTV-5 is an adherent human chondrosarcoma cell line that contains endogenous glucocorticoid receptors. It was transfected with a plasmid (pMAMneo-Luc) encoding firefly luciferase located behind a glucocorticoid-responsive element (GRE) derived from a viral promoter (long terminal repeat of mouse mammary tumor virus). A stable cell line SW1353/MMTV-5 was selected with geneticin, which was required to maintain this plasmid.
SW1353/MMTV-5 cells were distributed in 96-well plates and incubated in medium (without geneticin) for 24 hrs.

[2] = target: T2, human recombinant glucocorticoid receptor (Homo sapiens, UniProt P04150); experiment: Glucocorticoid receptor binding displacement assay with 3H-dexamethasone (Example 22); settings: Examples 1-15: 3H-dexamethasone displacement assay of Example 22; read-out: GR binding Ki
T2 construct: This GR was a full-length steroid hormone receptor; host or cells: baculovirus-infected insect cells
T2 sequence (P04150 1-777): T1 sequence (P04150 1-777)
Experimental: Binding protocol: Compounds were tested in a binding displacement assay using human recombinant glucocorticoid receptor with ^3H-dexamethasone as the ligand. The source of the receptor was recombinant baculovirus-infected insect cells. This GR was a full-length steroid hormone receptor likely to be associated with heat-shock and other endogenous proteins.
For the IC50 determinations, test compounds were tested at 6 concentrations in duplicate. Test compounds were diluted from 10 mM stock in 100% DMSO. The tested solutions were prepared at 2× final assay concentration in 2% DMSO/assay buffer.
All reagents and the assay plate were kept on ice during the addition of reagents. The reagents were added to wells of a v-bottomed polypropylene plate in the following order: 25 μl of 10 nM 3H-dexamethasone solution, 50 μl of TB/NSB/compound solution and 25 μl of 2 nM GR solution. After the additions, the incubation mixture was mixed and incubated for 2.5 hrs at 4° C.
After 2.5 hrs incubation, unbound counts were removed with dextran coated charcoal (DCC) as follows: 15 μl of DCC solution (10% DCC in assay buffer) was added to all wells and mixed (total volume 115 μl). The plate was centrifuged at 4000 rpm for 10 minutes at 4° C. 75 μl of the supernatants was carefully pipetted into an optiplate. 150 μl of scintillation cocktail were added (Microscint-40, Perkin Elmer). The plate was vigorously shaken for approximately 10 minutes and counted on a Topcount.
The IC50 values were converted to Ki (the inhibition constant) using the Cheng-Prusoff equation.
Reagents: Assay buffer: 10 mM potassium phosphate buffer pH 7.6 containing 5 mM DTT, 10 mM sodium molybdate, 100 μM EDTA and 0.1% BSA.

**Q.** How did the pKi [1] turn out when `CCOC(=O)[C@]12Cc3cnn(-c4ccc(F)cc4)c3C=C1CCN(S(=O)(=O)c1cccc(N3CC[C@@H](F)C3)c1)C2` [Example 11, (R)-1-(4-Fluoro-phenyl)-6-[3-((R)-3-fluoro-pyrrolidin-1-yl)-benzenesulfonyl]-1,4,5,6,7,8-hexahydro-1,2,6-triaza-cyclopenta[b]naphthalene-4a-carboxylic acid ethyl ester] was run?
**A.** 7.70 to 8.00

**Q.** And the pKi [2]?
**A.** 9.00 to 9.30

**Q.** How did the pKi [1] turn out when `O=C(OCF)[C@]12Cc3cnn(-c4ccc(F)cc4)c3C=C1CCN(S(=O)(=O)c1cccc(N3CCCC3)c1)C2` [Example 15, (R)-1-(4-Fluoro-phenyl)-6-[3-(pyrrolidin-1-yl)-benzenesulfonyl]-1,4,5,6,7,8-hexahydro-1,2,6-triaza-cyclopenta[b]naphthalene-4a-carboxylic acid fluoromethyl ester] was run?
**A.** < 7.70

**Q.** And the pKi [2]?
**A.** 9.00 to 9.30

**Q.** How did the pKi [1] turn out when `CCOC(=O)[C@]12Cc3cnn(-c4ccc(F)cc4)c3C=C1CCN(S(=O)(=O)c1cccc(N3CCCC3)c1)C2` [Example 14, (R)-1-(4-Fluoro-phenyl)-6-[3-(pyrrolidin-1-yl)-benzenesulfonyl]-1,4,5,6,7,8-hexahydro-1,2,6-triaza-cyclopenta[b]naphthalene-4a-carboxylic acid ethyl ester] was run?
**A.** 7.70 to 8.00

**Q.** And the pKi [2]?
**A.** 9.00 to 9.30

**Q.** `COC[C@]12Cc3cnn(-c4ccc(F)cc4)c3C=C1CCN(S(=O)(=O)c1cccc(N3CC[C@@H](F)C3)c1)C2` [Example 4, (R)-1-(4-Fluorophenyl)-6-[3-((R)-3-fluoropyrrolidin-1-yl)-benzenesulfonyl]-4a-methoxymethyl-4,4a,5,6,7,8-hexahydro-1H-1,2,6-triaza-cyclopenta[b]naphthalene] was tested. Which pKi [1] did it give?
**A.** 7.70 to 8.00

**Q.** And the pKi [2]?
**A.** ≤ 9.00

**Q.** How did the pKi [1] turn out when `COC[C@]12Cc3cnn(-c4ccc(F)cc4)c3C=C1CCN(S(=O)(=O)c1ccc(N3CC[C@@H](F)C3)cc1)C2` [Example 9, (R)-1-(4-Fluoro-phenyl)-6-[4-((R)-3-fluoro-pyrrolidin-1-yl)-benzenesulfonyl]-4a-methoxymethyl-4,4a,5,6,7,8-hexahydro-1H-1,2,6-triaza-cyclopenta[b]naphthalene] was run?
**A.** 7.70 to 8.00

**Q.** And the pKi [2]?
**A.** 9.00 to 9.30

**Q.** How did the pKi [1] turn out when `O=S(=O)(c1cccc(N2CC[C@@H](F)C2)c1)N1CCC2=Cc3c(cnn3-c3ccc(F)cc3)C[C@]2(COCC2CC2)C1` [Example 1, (R)-4a-Cyclopropylmethoxymethyl-1-(4-fluorophenyl)-6-[3-((R)-3-fluoropyrrolidin-1-yl)-benzenesulfonyl]-4,4a,5,6,7,8-hexahydro-1H-1,2,6-triaza-cyclopenta[b]naphthalene] was run?
**A.** > 8.00

**Q.** What about the pKi [2] of the same compound?
**A.** ≤ 9.00

**Q.** `COC[C@]12Cc3cnn(-c4ccc(F)cc4)c3C=C1CCN(S(=O)(=O)c1ccc(N3CCCC3)cc1)C2` [Example 10, (R)-1-(4-Fluoro-phenyl)-6-[4-(pyrrolidin-1-yl)-benzenesulfonyl]-4a-methoxymethyl-4,4a,5,6,7,8-hexahydro-1H-1,2,6-triaza-cyclopenta[b]naphthalene] was tested. Which pKi [1] did it give?
**A.** < 7.70

**Q.** And the pKi [2]?
**A.** 9.00 to 9.30

**Q.** How did the pKi [1] turn out when `COC[C@]12Cc3cnn(-c4ccc(F)cc4)c3C=C1CCN(S(=O)(=O)c1cccc(N3CC[C@H](F)C3)c1)C2` [Example 5, (R)-1-(4-Fluorophenyl)-6-[3-((S)-3-fluoropyrrolidin-1-yl)-benzenesulfonyl]-4a-methoxymethyl-4,4a,5,6,7,8-hexahydro-1H-1,2,6-triaza-cyclopenta[b]naphthalene] was run?
**A.** > 8.00

**Q.** What about the pKi [2] of the same compound?
**A.** 9.00 to 9.30

**Q.** `O=S(=O)(c1cccc(N2CCCC2)c1)N1CCC2=Cc3c(cnn3-c3ccc(F)cc3)C[C@]2(COCC2CC2)C1` [Example 3, (R)-4a-Cyclopropylmethoxymethyl-1-(4-fluorophenyl)-6-[3-(pyrrolidin-1-yl)-benzenesulfonyl]-4,4a,5,6,7,8-hexahydro-1H-1,2,6-triaza-cyclopenta[b]naphthalene] was tested. Which pKi [1] did it give?
**A.** > 8.00

**Q.** What about the pKi [2] of the same compound?
**A.** ≤ 9.00

**Q.** With `O=S(=O)(c1cccc(N2CC[C@H](F)C2)c1)N1CCC2=Cc3c(cnn3-c3ccc(F)cc3)C[C@]2(COCC2CC2)C1` [Example 2, (R)-4a-Cyclopropylmethoxymethyl-1-(4-fluorophenyl)-6-[3-((S)-3-fluoropyrrolidin-1-yl)-phenyl-3-sulfonyl]-4,4a,5,6,7,8-hexahydro-1H-1,2,6-triaza-cyclopenta[b]naphthalene] as the compound, how does the pKi [1] read?
**A.** > 8.00

**Q.** And the pKi [2]?
**A.** 9.00 to 9.30

**Q.** Which results are given for `O=C(OCF)[C@]12Cc3cnn(-c4ccc(F)cc4)c3C=C1CCN(S(=O)(=O)c1cccc(N3CC[C@@H](F)C3)c1)C2` [Example 13, (R)-1-(4-Fluoro-phenyl)-6-[3-((R)-3-fluoro-pyrrolidin-1-yl)-benzenesulfonyl]-1,4,5,6,7,8-hexahydro-1,2,6-triaza-cyclopenta[b]naphthalene-4a-carboxylic acid fluoromethyl ester]?
**A.** pKi [1]: < 7.70; pKi [2]: 9.00 to 9.30

**Q.** With `COC[C@]12Cc3cnn(-c4ccc(F)cc4)c3C=C1CCN(S(=O)(=O)c1cccc(N3CCCC3)c1)C2` [Example 6, (R)-1-(4-Fluoro-phenyl)-4a-methoxymethyl-6-[3-(pyrrolidin-1-yl)-benzenesulfonyl)-4,4a,5,6,7,8-hexahydro-1H-1,2,6-triaza-cyclopenta[b]naphthalene] as the compound, how does the pKi [1] read?
**A.** 7.70 to 8.00

**Q.** And the pKi [2]?
**A.** 9.00 to 9.30

**Q.** With `O=S(=O)(c1ccc(N2CCCC2)cc1)N1CCC2=Cc3c(cnn3-c3ccc(F)cc3)C[C@]2(COCC2CC2)C1` [Example 8, (R)-4a-Cyclopropylmethoxymethyl-1-(4-fluoro-phenyl)-6-[4-(pyrrolidin-1-yl)-benzenesulfonyl]-4,4a,5,6,7,8-hexahydro-1H-1,2,6-triaza-cyclopenta[b]naphthalene] as the compound, how does the pKi [1] read?
**A.** > 8.00

**Q.** What about the pKi [2] of the same compound?
**A.** ≤ 9.00

**Q.** `COC(=O)[C@]12Cc3cnn(-c4ccc(F)cc4)c3C=C1CCN(S(=O)(=O)c1cccc(N3CC[C@@H](F)C3)c1)C2` [Example 12, (R)-1-(4-Fluoro-phenyl)-6-[3-((R)-3-fluoro-pyrrolidin-1-yl)-benzenesulfonyl]-1,4,5,6,7,8-hexahydro-1,2,6-triaza-cyclopenta[b]naphthalene-4a-carboxylic acid methyl ester] was tested. Which pKi [1] did it give?
**A.** < 7.70

**Q.** What about the pKi [2] of the same compound?
**A.** ≤ 9.00

**Q.** How did the pKi [1] turn out when `O=S(=O)(c1ccc(N2CC[C@@H](F)C2)cc1)N1CCC2=Cc3c(cnn3-c3ccc(F)cc3)C[C@]2(COCC2CC2)C1` [Example 7, (R)-4a-Cyclopropylmethoxymethyl-1-(4-fluoro-phenyl)-6-[4-((R)-3-fluoro-pyrrolidin-1-yl)-benzenesulfonyl]-4,4a,5,6,7,8-hexahydro-1H-1,2,6-triaza-cyclopenta[b]naphthalene] was run?
**A.** > 8.00

**Q.** What about the pKi [2] of the same compound?
**A.** > 9.30
